Assay results reported in US8153808B2, “Dihydropyridone amides as P2X7 modulators” (Roche Palo Alto LLC, priority 2008, dated 2012).

Target: T1, P2X7 (UniProt Q99572)
T1 sequence (Q99572 1-595): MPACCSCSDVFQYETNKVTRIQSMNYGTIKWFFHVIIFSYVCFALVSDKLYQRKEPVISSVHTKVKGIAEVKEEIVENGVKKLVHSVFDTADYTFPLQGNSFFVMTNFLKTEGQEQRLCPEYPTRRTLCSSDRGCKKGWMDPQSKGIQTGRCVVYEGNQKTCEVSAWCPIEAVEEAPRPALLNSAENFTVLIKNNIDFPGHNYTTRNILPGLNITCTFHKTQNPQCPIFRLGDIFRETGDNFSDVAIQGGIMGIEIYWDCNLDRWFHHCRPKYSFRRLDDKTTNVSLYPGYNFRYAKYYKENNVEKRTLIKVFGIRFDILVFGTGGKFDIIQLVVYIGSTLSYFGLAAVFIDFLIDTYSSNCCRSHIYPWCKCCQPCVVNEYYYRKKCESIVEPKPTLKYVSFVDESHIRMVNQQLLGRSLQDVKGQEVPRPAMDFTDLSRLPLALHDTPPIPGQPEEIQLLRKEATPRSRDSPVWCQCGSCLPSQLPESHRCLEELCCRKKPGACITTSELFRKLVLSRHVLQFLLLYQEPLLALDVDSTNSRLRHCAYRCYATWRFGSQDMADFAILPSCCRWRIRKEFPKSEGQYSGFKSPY
Assay: pIC50 values for P2X7 (Table 1)
Assay type: cell-based
Method: Intracellular Calcium Flux (FLIPR) Assay
Stock solutions of compounds were prepared from powders as a 10 mM DMSO stock solution. These solutions were stored at RT during the two week period of these experiments to prevent freeze-thaw of the DMSO stocks. The DMSO stocks were added to the appropriate assay buffer at a concentration of 10 μM, and then diluted serially to the final concentrations that were tested. […] The aqueous solutions of compounds as well as ATP (Sigma A7699) and BzATP (Sigma B6396) were prepared fresh for each day of experiment.
1321N1 cells stably expressing the full length human P2X7 gene (1321N1-hP2X7) and HEK293 cells stably expressing the full length rat P2X7 gene (HEK293-rP2X7) were obtained from the Roche Cell Culture Facility. 1321N1-hP2X7 cells were grown in Dulbecco's Modified Eagle's Medium (DMEM) high glucose supplemented with 10% FBS and 250 μg/mL G418. HEK293-rP2X7 cells were grown in DMEM/F-12 supplemented with 10% FBS, 1 mM CaCl2, 2 mM MgCl2, 2 mM L-Glutamine and 500 μg/ml G418. Cells were split such that they never became >70% confluent.
On the day prior to the experiment, 1321N1-hP2X7 or HEK293-rP2X7 cells were released into suspension with calcium-free PBS+Versene and washed by centrifugation with calcium-free PBS to remove the Versene. Cells were resuspended in growth medium at a density of 2.5×10^5 cells/mL and seeded into black walled, clear bottom 96 well plates (50,000 cells/well) approximately 18 hr prior to intracellular calcium flux experiments.
On the day of the experiment, plates were washed with FLIPR buffer (calcium- and magnesium-free Hank's Balanced Salt Solution (HBSS) supplemented with 10 mM Hepes, 2.5 mM probenecid and 2 mM calcium chloride) using a BIO-TEK 96 channel plate washer and incubated with […] fluo-3 dye at 37° C. for one hr. The dye was then removed by plate washing and the cells were allowed to equilibrate for 20 min at room temperature with antagonist or vehicle (FLIPR buffer). Agonist (100 μM BzATP final concentration for hP2X7; 5 μM BzATP final concentration or rP2X7) was added online with the FLIPR and fluorescence measurements made at 1 sec intervals for 60 sec followed by 3 sec intervals for a further 4 min (5 min total). A final addition of 5 μM ionomycin was made and the maximal BzATP-evoked fluorescence normalized to the maximal ionomycin-evoked fluorescence.

| Compound | pIC50 P2X7 |
| --- | --- |
| COc1cc(CC(=O)N2C=CC(=O)C[C@H]2c2ccc(F)cc2)c(Br)cc1F [Compound 36, (S)-1-[2-(2-Bromo-4-fluoro-5-methoxy-phenyl)-acetyl]-2-(4-fluoro-phenyl)-2,3-dihydro-1H-pyridin-4-one] | 7.55 |
| O=C1C=CN(C(=O)Cc2cc(OCCO)c(F)cc2Br)[C@H](c2cccc(F)c2)C1 [Compound 50, (S)-1-{2-[2-Bromo-4-fluoro-5-(2-hydroxy-ethoxy)-phenyl]-acetyl}-2-(3-fluoro-phenyl)-2,3-dihydro-1H-pyridin-4-one] | 7.65 |
| COc1cc(Br)c(CC(=O)N2C=CC(=O)C[C@H]2c2cccc(F)c2)cc1OC [Compound 41, (S)-1-[2-(2-Bromo-4,5-dimethoxy-phenyl)-acetyl]-2-(3-fluoro-phenyl)-2,3-dihydro-1H-pyridin-4-one] | 7.94 |
| COc1cc(Br)c(CC(=O)N2C=CC(=O)C[C@H]2c2ccc(F)cc2)cc1OC [Compound 19, (S)-1-[2-(2-Bromo-4,5-dimethoxy-phenyl)-acetyl]-2-(4-fluoro-phenyl)-2,3-dihydro-1H-pyridin-4-one] | 7.6125 |
| Cc1cc(Br)c(CC(=O)N2C=CC(=O)CC2c2ccc(F)cc2)cc1O (centres unmarked) [Compound 33, 1-[2-(2-Bromo-5-hydroxy-4-methyl-phenyl)-acetyl]-2-(4-fluoro-phenyl)-2,3-dihydro-1H-pyridin-4-one] | 6.18 |
| COc1cc(Cl)c(CC(=O)N2C=CC(=O)CC2c2ccccc2)cc1OC (centres unmarked) [Compound 11, 1-[2-(2-Chloro-4,5-dimethoxy-phenyl)-acetyl]-2-phenyl-2,3-dihydro-1H-pyridin-4-one] | 6.806 |
| O=C1C=CN(C(=O)Cc2cc(OC(F)F)c(OC(F)F)cc2Br)[C@H](c2ccc(F)cc2)C1 [Compound 26, (S)-1-[2-(2-Bromo-4,5-bis-difluoromethoxy-phenyl)-acetyl]-2-(4-fluoro-phenyl)-2,3-dihydro-1H-pyridin-4-one] | 5.895 |
| COc1cc(Br)c(CC(=O)N2C=CC(=O)CC2c2cccc(C)c2)cc1OC (centres unmarked) [Compound 37, 1-[2-(2-Bromo-4,5-dimethoxy-phenyl)-acetyl]-2-m-tolyl-2,3-dihydro-1H-pyridin-4-one] | 6.425 |
| COc1cc(CC(=O)N2C=CC(=O)C[C@H]2c2ccc(F)cc2)c(Br)cc1Cl [Compound 30, (S)-1-[2-(2-Bromo-4-chloro-5-methoxy-phenyl)-acetyl]-2-(4-fluoro-phenyl)-2,3-dihydro-1H-pyridin-4-one] | 6.4 |
| COc1cc(I)c(CC(=O)N2C=CC(=O)CC2c2ccccc2)cc1OC (centres unmarked) [Compound 1, 1-[2-(2-Iodo-4,5-dimethoxy-phenyl)-acetyl]-2-phenyl-2,3-dihydro-1H-pyridin-4-one] | 6.984 |
| Cc1cc(F)c(OCCO)cc1CC(=O)N1C=CC(=O)C[C@H]1c1ccc(F)cc1 [Compound 49, (S)-1-{2-[4-Fluoro-5-(2-hydroxy-ethoxy)-2-methyl-phenyl]-acetyl}-2-(4-fluoro-phenyl)-2,3-dihydro-1H-pyridin-4-one] | 7.12 |
| COc1cc(Br)c(CC(=O)N2C=CC(=O)CC2CC2CCCCC2)cc1OC (centres unmarked) [Compound 34, 1-[2-(2-Bromo-4,5-dimethoxy-phenyl)-acetyl]-2-cyclohexylmethyl-2,3-dihydro-1H-pyridin-4-one] | 5.94 |
| COc1cc(I)c(CC(=O)N2C=CC(=O)C[C@H]2c2ccccc2)cc1OC [Compound 4, (S)-1-[2-(2-Iodo-4,5-dimethoxy-phenyl)-acetyl]-2-phenyl-2,3-dihydro-1H-pyridin-4-one] | 7.418 |
| COc1cc(Br)c(CC(=O)N2C=CC(=O)CC2c2cccc(F)c2)cc1OC (centres unmarked) [Compound 35, 1-[2-(2-Bromo-4,5-dimethoxy-phenyl)-acetyl]-2-(3-fluoro-phenyl)-2,3-dihydro-1H-pyridin-4-one] | 6.815 |
| COc1ccc(CC(=O)N2C=CC(=O)C[C@H]2c2cccc(F)c2)cc1OC [Compound 45, (S)-1-[2-(3,4-Dimethoxy-phenyl)-acetyl]-2-(3-fluoro-phenyl)-2,3-dihydro-1H-pyridin-4-one] | 6.006 |
| COc1cc(CC(=O)N2C=CC(=O)CC2c2ccc(F)cc2)c(Br)cc1Cl (centres unmarked) [Compound 32, 1-[2-(2-Bromo-4-chloro-5-methoxy-phenyl)-acetyl]-2-(4-fluoro-phenyl)-2,3-dihydro-1H-pyridin-4-one] | 6.17 |
| COc1cc(Br)c(CC(=O)N2C=CC(=O)CC2C(C)C)cc1OC (centres unmarked) [Compound 9, 1-[2-(2-Bromo-4,5-dimethoxy-phenyl)-acetyl]-2-isopropyl-2,3-dihydro-1H-pyridin-4-one] | 5.45 |
| COc1cc(Cl)c(CC(=O)N2C=CC(=O)C[C@H]2c2ccccc2)cc1OC [Compound 14, (S)-1-[2-(2-Chloro-4,5-dimethoxy-phenyl)-acetyl]-2-phenyl-2,3-dihydro-1H-pyridin-4-one] | 6.705 |
| COc1ccc(Br)c(CC(=O)N2C=CC(=O)CC2c2ccccc2)c1 (centres unmarked) [Compound 7, 1-[2-(2-Bromo-5-methoxy-phenyl)-acetyl]-2-phenyl-2,3-dihydro-1H-pyridin-4-one] | 6.765 |
| COc1ccc(CC(=O)N2C=CC(=O)C[C@H]2c2ccc(F)cc2)cc1OC [Compound 44, (S)-1-[2-(3,4-Dimethoxy-phenyl)-acetyl]-2-(4-fluoro-phenyl)-2,3-dihydro-1H-pyridin-4-one] | 6.003 |
| CCOc1cc(Br)c(CC(=O)N2C=CC(=O)C[C@H]2c2ccc(F)cc2)cc1OC [Compound 17, (S)-1-[2-(2-Bromo-4-ethoxy-5-methoxy-phenyl)-acetyl]-2-(4-fluoro-phenyl)-2,3-dihydro-1H-pyridin-4-one] | 6.535 |
| COc1cc(F)c(CC(=O)N2C=CC(=O)C[C@H]2c2ccc(F)cc2)cc1OC [Compound 47, (S)-1-[2-(2-Fluoro-4,5-dimethoxy-phenyl)-acetyl]-2-(4-fluoro-phenyl)-2,3-dihydro-1H-pyridin-4-one] | 6.4 |
| COc1ccc(OC)c(CC(=O)N2C=CC(=O)CC2c2ccc(F)cc2)c1 (centres unmarked) [Compound 42, 1-[2-(2,5-Dimethoxy-phenyl)-acetyl]-2-(4-fluoro-phenyl)-2,3-dihydro-1H-pyridin-4-one] | 5.995 |
| COc1cc(Br)c(CC(=O)N2C=CC(=O)CC2c2ccc(F)cc2)cc1OC (centres unmarked) [Compound 22, 1-[2-(2-Bromo-4,5-dimethoxy-phenyl)-acetyl]-2-(4-fluoro-phenyl)-2,3-dihydro-1H-pyridin-4-one] | 7.165 |
| O=C1C=CN(C(=O)Cc2cc3c(cc2Br)OCCO3)C(c2ccccc2)C1 (centres unmarked) [Compound 12, 1-[2-(7-Bromo-2,3-dihydro-benzo[1,4]dioxin-6-yl)-acetyl]-2-phenyl-2,3-dihydro-1H-pyridin-4-one] | 5.305 |
| COc1cc(CC(=O)N2C=CC(=O)CC2c2ccccc2)c(C(F)(F)F)cc1OC (centres unmarked) [Compound 15, 1-[2-(4,5-Dimethoxy-2-trifluoromethyl-phenyl)-acetyl]-2-phenyl-2,3-dihydro-1H-pyridin-4-one] | 5.395 |
| COc1cccc(C2CC(=O)C=CN2C(=O)Cc2cc(OC)c(OC)cc2Br)c1 (centres unmarked) [Compound 28, 1-[2-(2-Bromo-4,5-dimethoxy-phenyl)-acetyl]-2-(3-methoxy-phenyl)-2,3-dihydro-1H-pyridin-4-one] | 5.415 |
| COc1cc(Br)c(CC(=O)N2C=CC(=O)CC2c2cccc(C#N)c2)cc1OC (centres unmarked) [Compound 39, 3-{1-[2-(2-Bromo-4,5-dimethoxy-phenyl)-acetyl]-4-oxo-1,2,3,4-tetrahydro-pyridin-2-yl}-benzonitrile] | 5.45 |
| O=C1C=CN(C(=O)Cc2cc(OCCO)c(F)cc2Br)[C@H](c2ccc(F)cc2)C1 [Compound 46, (S)-1-{2-[2-Bromo-4-fluoro-5-(2-hydroxy-ethoxy)-phenyl]-acetyl}-2-(4-fluoro-phenyl)-2,3-dihydro-1H-pyridin-4-one] | 7.31 |
